Measured values reported in patent US9814696B2, “Use of coumarin derivatives for the preparation of drugs for treating skin diseases” (UNIVERSITE PIERRE ET MARIE CURIE (PARIS 6), priority 2011, dated 2017).
Values belong to the compound of their own block, whether it stands above or below them.

Key:
Type in all cases: biochemical
KLK7 = KLK7 (Homo sapiens, UniProt P49862); assay: KLK7 enzyme inhibition assay, fluorogenic substrate Suc-Leu-Leu-Val-Tyr-AMC; conditions: for IC50: Table A, read-out: IC50 (μM) KLK7; for IC50 / inhibition at 50 µM / inhibition at 100 µM / inhibition at 10 µM: 37° C., 15 min of incubation, pH 8; for selective activity against enzyme: KLK7: Table B, among KLK5, KLK7 and KLK14
Experimental: (§1) Kallikreins KLK5, KLK7 and KLK14 activities were determined by monitoring the hydrolysis of the appropriate fluorogenic substrate (λexc=355, λem=460 nm) for 15 min at 37° C. in the presence of the untreated kallikrein (control) or kallikrein that had been incubated with a test compound. Substrate and compounds were previously dissolved in DMSO, with the final solvent concentration kept constant at 2% (v/v) (KLK 5 and 14), and 4% (v/v) (KLK7). The composition of the activity buffers (pH 8.0) was 100 mM Tris-HCl, 150 mM NaCl, 0.01% (v/v) Tween 20 for the KLK5 assay, and 100 mM Tris-HCl, 1M NaCl, 0.01% (v/v) Tween 20 in the KLK 7 and 14 assays. The final concentrations were 0.6 nM (KLK5) and 100 μM (Boc-Val-Pro-Arg-AMC) (KLK5 assay), 8 nM (KLK7) and 40 μM (Suc-Leu-Leu-Val-Tyr-AMC, AMC: 7-amino-4-methyl-coumarin) (KLK7 assay), and 0.17 nM (KLK14) and 10 μM (Boc-Val-Pro-Arg-AMC) (KLK14 assay). Using the appropriate substrate, the coumarinic compounds (0.01-100 μM) were tested in duplicate for each inhibitor concentration to detect their inhibitory potential. The enzyme and the inhibitors were incubated for 15 min before the determination of the enzyme activity. Initial rates determined in control experiments (V0) were considered to be 100% of the peptidase activity; initial rates below 100% were considered to be inhibitions. The inhibitory activity of compounds was expressed as IC50 (inhibitor concentrations giving 50% inhibition). The values of IC50 were calculated by fitting the experimental data to the equation: % Inhibition=100×(1−Vi/V0)=100[I]0/(IC50+[I]0), or equation: % Inhibition=100[I]0^nH/(IC50^nH+[I]0^nH),nH is the Hill number.
(§2) The tests were realized at 37° C. after 15 min of incubation at pH 8.

KLK14 = molecular target: T1, KLK14 (Homo sapiens, UniProt Q9P0G3); assay: KLK14 enzyme inhibition assay, fluorogenic substrate Boc-Val-Pro-Arg-AMC; conditions: for selective activity against enzyme: KLK14: Table B, among KLK5, KLK7 and KLK14
T1 sequence (Q9P0G3 25-251): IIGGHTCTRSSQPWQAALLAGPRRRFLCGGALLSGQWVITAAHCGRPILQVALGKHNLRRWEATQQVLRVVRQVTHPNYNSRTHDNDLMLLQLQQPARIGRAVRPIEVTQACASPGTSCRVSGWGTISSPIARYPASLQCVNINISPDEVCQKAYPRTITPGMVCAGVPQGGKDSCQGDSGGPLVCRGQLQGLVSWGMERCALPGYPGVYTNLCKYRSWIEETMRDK
Experimental: as §1, §2

KLK5 = molecular target: T2, KLK5 (Homo sapiens, UniProt Q9Y337); assay: KLK5 enzyme inhibition assay, fluorogenic substrate Boc-Val-Pro-Arg-AMC; conditions: for inhibition at 50 µM / IC50 / inhibition at 100 µM: 37° C., 15 min of incubation, pH 8; for IC50: Table A, read-out: IC50 (μM) KLK5; for selective activity against enzyme: KLK5: Table B, among KLK5, KLK7 and KLK14
T2 sequence (Q9Y337 23-293): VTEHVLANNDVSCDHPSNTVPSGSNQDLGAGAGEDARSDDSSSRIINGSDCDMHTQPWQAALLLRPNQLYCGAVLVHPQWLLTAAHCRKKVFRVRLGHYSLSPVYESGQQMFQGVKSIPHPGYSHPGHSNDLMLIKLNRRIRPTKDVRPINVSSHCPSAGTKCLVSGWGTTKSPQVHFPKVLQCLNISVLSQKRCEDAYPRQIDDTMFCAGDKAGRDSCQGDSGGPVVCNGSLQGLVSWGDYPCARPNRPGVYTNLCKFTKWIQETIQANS
Experimental: as §1, §2

[1] = 37° C., 15 min of incubation, pH 8

Sequence of KLK7 (P49862 30-253): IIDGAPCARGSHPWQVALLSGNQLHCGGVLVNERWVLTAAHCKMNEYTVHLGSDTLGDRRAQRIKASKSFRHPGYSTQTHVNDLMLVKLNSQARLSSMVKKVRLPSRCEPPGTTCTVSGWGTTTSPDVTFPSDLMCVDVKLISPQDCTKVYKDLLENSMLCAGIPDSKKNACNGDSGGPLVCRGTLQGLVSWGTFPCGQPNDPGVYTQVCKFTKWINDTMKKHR

Compound: CS(=O)(=O)NCc1ccc2oc(=O)c(C(=O)Oc3cccc(Cl)c3)cc2c1 [MH24]
IC50 (KLK7): 33.2 ± 1.4 µM
inhibition at 50 µM (KLK14; [1]): 42%

Compound: O=C(Oc1ccccc1)c1cc2cc(O)ccc2oc1=O [MH8]
inhibition at 50 µM (KLK7): 25%
selective activity against enzyme: KLK7 (KLK7): KLK7

Compound: CC(=O)OCc1ccc2oc(=O)c(C(=O)Oc3ccccc3C#N)cc2c1 [SMB33, 2-cyanophenyl 6-acetoxymethyl-2-oxo-2H-1-benzopyran-3-carboxylate]
inhibition at 50 µM (KLK14; [1]): 27%
selective activity against enzyme: KLK14 (KLK14): KLK14

Compound: O=C(Oc1ccc(I)cc1)c1cc2cc(CCl)ccc2oc1=O [LP16]
inhibition at 50 µM (KLK7): 47%

Compound: CC(=O)OCc1ccc2oc(=O)c(C(=O)Oc3cccc(F)c3)cc2c1 [IK10]
inhibition at 50 µM (KLK5): 23%
selective activity against enzyme: KLK5 (KLK5): KLK5

Compound: CCOC(=O)c1cc2cc(C)ccc2oc1=O [Compound D5]
inhibition at 100 µM (KLK5): 90%
inhibition at 100 µM (KLK7): 61%
inhibition at 100 µM (KLK14; [1]): 38%

Compound: CC(=O)OCc1ccc2oc(=O)c(C(=O)Oc3ccccc3I)cc2c1 [SMB28, 2-iodophenyl 6-acetoxymethyl-2-oxo-2H-1-benzopyran-3-carboxylate]
IC50 (KLK7): 82.2 ± 13.2 µM
selective activity against enzyme: KLK7 (KLK7): KLK7

Compound: CC(=O)NCc1ccc2oc(=O)c(C(=O)Oc3cccc(Br)c3)cc2c1 [IK49]
inhibition at 10 µM (KLK7): 54%
selective activity against enzyme: KLK7 (KLK7): KLK7

Compound: CCC(=O)OCc1ccc2oc(=O)c(C(=O)Oc3cncc(Cl)c3)cc2c1 [LP42]
inhibition at 50 µM (KLK5): 22%
inhibition at 100 µM (KLK7): 52%
selective activity against enzyme: KLK7 (KLK7): KLK7

Compound: Cc1cc(OC(=O)c2cc3cc(CCl)ccc3oc2=O)ccc1Cl [MFS35]
inhibition at 100 µM (KLK7): 55%
inhibition at 100 µM (KLK14; [1]): 71%
selective activity against enzyme: KLK14 (KLK14): KLK14

Compound: O=C(Oc1cc(F)ccc1F)c1cc2ccccc2oc1=O [CFL7]
inhibition at 100 µM (KLK7): 33%
inhibition at 100 µM (KLK14; [1]): 33%

Compound: CC(=O)OCc1ccc2oc(=O)c(C(=O)Oc3ccccc3Cl)cc2c1 [SMB27]
inhibition at 50 µM (KLK7): 42%
inhibition at 50 µM (KLK14; [1]): 27%

Compound: O=C(Oc1cc(F)ccc1Br)c1cc2cc(CCl)ccc2oc1=O [CFL15]
inhibition at 100 µM (KLK5): 47%
IC50 (KLK7): 0.352 ± 0.055 µM
selective activity against enzyme: KLK7 (KLK7): KLK7
inhibition at 100 µM (KLK14; [1]): 45%

Other lines, results leading:

inhibition at 50 µM (KLK5): 27%
IC50 (KLK7): 9.7 ± 1.3 µM
inhibition at 50 µM (KLK14; [1]): 32%
Compound: NCc1ccc2oc(=O)c(C(=O)Oc3cccc(Br)c3)cc2c1 [IK48]

IC50 (KLK5): ~40 µM
IC50 (KLK7): 64.3 ± 2.7 µM
inhibition at 100 µM (KLK14; [1]): 64%
Compound: COC(=O)c1ccccc1OC(=O)c1cc2cc(COC(C)=O)ccc2oc1=O [IK8]

IC50 (KLK7): 5.01 ± 0.4 µM
inhibition at 50 µM (KLK14; [1]): 60%
Compound: CC(=O)OCc1ccc2oc(=O)c(C(=O)Oc3cc(Cl)ccc3Cl)cc2c1 [CFL4]

inhibition at 10 µM (KLK7): 52%
selective activity against enzyme: KLK7 (KLK7): KLK7
Compound: CC(=O)OCc1ccc2oc(=O)c(C(=O)Oc3ccccc3Br)cc2c1 [SMB26]

IC50 (KLK5): 54 ± 2 µM
IC50 (KLK7): 26.8 ± 1.5 µM
IC50 (KLK14; Table A, 37° C., 15 min of incubation, pH 8, read-out: IC50 (μM) KLK14): 73 ± 14 µM
Compound: COC(=O)c1cc2cc(CCl)ccc2oc1=O [MFS2]

inhibition at 100 µM (KLK5): 49%
IC50 (KLK7): 0.103 ± 0.005 µM
selective activity against enzyme: KLK7 (KLK7): KLK7
inhibition at 100 µM (KLK14; [1]): 40%
Compound: O=C(Oc1cccc(Cl)c1)c1cc2cc(CCl)ccc2oc1=O [LP8]

inhibition at 100 µM (KLK5): 80%
selective activity against enzyme: KLK5 (KLK5): KLK5
inhibition at 100 µM (KLK14; [1]): 40%
Compound: CC(=O)c1cc2cc(C)ccc2oc1=O [Compound D9]

inhibition at 100 µM (KLK5): 50%
IC50 (KLK7): 0.209 ± 0.006 µM
selective activity against enzyme: KLK7 (KLK7): KLK7
inhibition at 100 µM (KLK14; [1]): 100%
Compound: O=C(Oc1ccccc1Cl)c1cc2cc(CCl)ccc2oc1=O [MFS36]

inhibition at 100 µM (KLK7): 34%
inhibition at 100 µM (KLK14; [1]): 72%
selective activity against enzyme: KLK14 (KLK14): KLK14
Compound: COC(=O)c1ccc(OC(=O)c2cc3cc(CCl)ccc3oc2=O)cc1 [IK13]

inhibition at 100 µM (KLK7): 33%
inhibition at 50 µM (KLK14; [1]): 50%
selective activity against enzyme: KLK14 (KLK14): KLK14
Compound: CC(=O)OCc1ccc2oc(=O)c(C(=O)Oc3cc(F)ccc3Br)cc2c1 [CFL17]
